The target of the test is T1, gastrin receptor (Rattus norvegicus, UniProt P30553).
T1 construct: The stomach was excised and flushed with ca. 1 ml of unbuffered physiological saline solution; from tissue; host or cells: isolated whole stomach of immature rats (ca. 21 days old)
T1 sequence (P30553 1-452): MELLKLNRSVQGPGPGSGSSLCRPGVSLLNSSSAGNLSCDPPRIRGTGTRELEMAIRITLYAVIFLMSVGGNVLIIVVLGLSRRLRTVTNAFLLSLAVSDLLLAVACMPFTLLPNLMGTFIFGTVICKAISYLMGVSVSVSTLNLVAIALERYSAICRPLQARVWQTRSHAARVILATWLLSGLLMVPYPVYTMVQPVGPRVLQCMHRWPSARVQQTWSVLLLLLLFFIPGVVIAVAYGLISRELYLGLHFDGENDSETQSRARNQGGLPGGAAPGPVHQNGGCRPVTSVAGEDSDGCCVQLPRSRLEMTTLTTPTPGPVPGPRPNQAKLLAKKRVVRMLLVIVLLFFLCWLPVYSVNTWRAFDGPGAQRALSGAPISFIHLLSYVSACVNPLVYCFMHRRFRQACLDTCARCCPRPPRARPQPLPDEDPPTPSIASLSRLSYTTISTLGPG
Briefly: gastrin antagonist activity in immature rat stomach assay (pentagastrin dose-response, acid secretion). Conditions: isolated immature rat stomach, cumulative pentagastrin dose-response curves; for Kb: read-out: Gastrin pKb (converted). As to the method:
The compounds of the examples were also tested for gastrin antagonist activity in an immature rat stomach assay. The procedure was as follows:
The oesophagus of immature rats (33-50 g, ca. 21 days old) was ligated at the level of the cardiac sphincter and the duodenal sphincter was cannulated. The stomach was excised and flushed with ca. 1 ml of unbuffered physiological saline solution. The fundus was punctured and cannulated. A further 4-5 ml of unbuffered solution was flushed through the stomach to ensure the preparation was not leaking. The stomach was lowered into a jacketed organ bath containing 40 ml of buffered solution containing 3×10^−8 M 5-methylfurmethide, maintained at 37° and gassed vigorously with 95% O2/5% CO2. The stomach was continuously perfused at a rate of 1 ml min^−1 with unbuffered solution gassed with 100% O2 with the perfusate passing over an internally referenced pH-electrode fixed 12 cm above the stomach.
After 120 min of stabilisation the drugs were added directly to the serosal solution in the organ bath and after a further 60 min cumulative pentagastrin dose-response curves were started. Changes in acid secretion were monitored and the curves analysed according to Black et al., Br. J. Pharmacol., 1985, 86, 581.

Results on 22 molecules are retold here after patent US6479531B1, “Gastrin and cholecystokinin receptor ligands” (James Black Foundation Limited, priority 1998, dated 2002).

On to “5-{[5-(2-Adamantan-1-yl-ethyl)-2-[1-(2-methyl-propyl)-piperidin-2-yl])-1H-imidazole-4-carbonyl]-amino}-2-methyl-benzoic Acid [Example 142]”, for which the “Gastrin pKb” value is reported as 6.75.
Take `CC1(C)C2CC[C@@]1(C)C(c1nc(C(=O)Nc3cccc(C(=O)O)c3)c(CCC34CC5CC(CC(C5)C3)C4)[nH]1)C2` (mixture of isomers) [Example 206, 3-{[5-(2-Adamantan-1-yl-ethyl)-2-[(1S,2RS)-1,7,7-trimethyl-bicyclo[2.2.1]hept-2-yl]-1H-imidazole-4-carbonyl]-amino}-benzoic Acid]: the Kb was 263 nM.
Same read-out and setting: next, `CN1CCCCC1c1nc(C(=O)Nc2cccc(C(=O)O)c2)c(CCC23CC4CC(CC(C4)C2)C3)[nH]1` (racemic) [Example 139, (±)-3-{[5-(2-Adamantan-1-yl-ethyl)-2-(1-methyl-piperidin-2-yl)-1H-imidazole-4-carbonyl]-amino}-benzoic Acid]: 15.8 nM.
Consider `O=C(O)Cc1cccc(NC(=O)c2nc(C3CC4CCC3C4)[nH]c2CCC23CC4CC(CC(C4)C2)C3)c1` (racemic) [Example 210, (±)-exo-(3-{[5-(2-Adamantan-1-yl-ethyl)-2-bicyclo[2.2.1]hept-2-yl-1H-imidazole-4-carbonyl]-amino}-phenyl)-acetic Acid], for which the “Gastrin pKb” value is on record as 6.89.
On the same count and under the same terms, next, `O=C(O)c1cccc(NC(=O)c2nc(C3CC4C=CC3C4)[nH]c2COC23CC4CC(CC(C4)C2)C3)c1` (racemic) [Example 234, (±)-endo-3-{[5-(Adamantan-1-yloxymethyl)-2-bicyclo[2.2.1]hept-5-en-2-yl-1H-imidazole-4-carbonyl]-amino}-benzoic Acid]: 8.71; `O=C(Nc1cccc(CC(O)C(=O)O)c1)c1nc(C2CCCCC2)[nH]c1CCC12CC3CC(CC(C3)C1)C2` (racemic) [Example 260, (±)-(3-{[5-(2-Adamantan-1-yl-ethyl)-2-cyclohexyl-1H-imidazole-4-carbonyl]-amino}-phenyl)-2-hydroxy-propionic Acid]: 7.01.
Consider `CC(=O)NC(C(=O)O)c1cccc(NC(=O)c2nc(C3CCCCC3)[nH]c2CCC23CC4CC(CC(C4)C2)C3)c1` (racemic) [Example 264, (±)-Acetylamino-(3-{[5-(2-adamantan-1-yl-ethyl)-2-cyclohexyl-1H-imidazole-4-carbonyl]-amino}-phenyl)-acetic Acid], for which the Kb is 871 nM.
Still for that read-out and setting: the result for `CC(=O)NC(Cc1cccc(NC(=O)c2nc(C3CCCCC3)[nH]c2CCC23CC4CC(CC(C4)C2)C3)c1)C(=O)O` (racemic) [Example 265, (±)-2-Acetylamino-3-(3-{[5-(2-adamantan-1-yl-ethyl)-2-cyclohexyl-1H-imidazole-4-carbonyl]-amino}-phenyl)-propionic Acid] reads 148 nM.
`Cc1ccc(NC(=O)c2nc(C3CCCCC3)[nH]c2CCC23CC4CC(CC(C4)C2)C3)cc1C(=O)O` [Example 107]: the “Gastrin pKb” value turned out to be 7.65.
`Cc1cc(C)c(-c2nc(C(=O)Nc3ccc(F)c(C(=O)O)c3)c(CCC34CC5CC(CC(C5)C3)C4)[nH]2)c(C)c1` [Example 156, 5-{[5-(2-Adamantan-1-yl-ethyl)-2-(2,4,6-trimethyl-phenyl)-1H-imidazole-4-carbonyl]-amino}-2-fluoro-benzoic Acid]: the Kb was 63.1 nM.
As for `Cc1cc(C)c(-c2nc(C(=O)Nc3cccc(CC(=O)O)c3)c(CCC34CC5CC(CC(C5)C3)C4)[nH]2)c(C)c1` [Example 157, (3-{[5-(2-Adamantan-1-yl-ethyl)-2-(2,4,6-trimethyl-phenyl)-1H-imidazole-4-carbonyl]-amino}-phenyl)-acetic Acid], the Kb was 219 nM.
Still for that read-out and setting: the result for `COc1cc(OC)c(-c2nc(C(=O)Nc3cccc(C(=O)O)c3)c(CCC34CC5CC(CC(C5)C3)C4)[nH]2)c(OC)c1` [Example 160, 3-{[5-(2-Adamantan-1-yl-ethyl)-2-(2,4,6-trimethoxy-phenyl)-1H-imidazole-4-carbonyl]-amino}-benzoic Acid] reads 912 nM; that for `O=C(O)c1cccc(NC(=O)c2nc(C3CCCCC3)[nH]c2CCC23CCC(CC2)CC3)c1` [Example 175, 3-{[5-(2-Bicyclo[2.2.2]oct-1-yl-ethyl)-2-cyclohexyl-1H-imidazole-4-carbonyl]-amino}-benzoic Acid], 2.95 nM.
Turning to `Cc1ccc(NC(=O)c2nc(C3CCCCC3)[nH]c2CCC23CCC(CC2)CC3)cc1C(=O)O` [Example 176, 5-{[5-(2-Bicyclo[2.2.2]oct-1-yl-ethyl)-2-cyclohexyl-1H-imidazole-4-carbonyl]-amino}-2-methyl-benzoic Acid], the Kb was 6.61 nM.
The same measure, in the same setting: next, `Cc1cc(C)c(-c2nc(C(=O)Nc3cccc(C(=O)O)c3)c(CCC34CC5CC(CC(C5)C3)C4)[nH]2)c(C)n1` [Example 182, 3-{[5-(2-Adamantan-1-yl-ethyl)-2-(2,4,6-trimethyl-pyridine-3-yl)-1H-imidazole-4-carbonyl]-amino}-benzoic Acid]: 51.3 nM; `Cc1cc(C)c(-c2nc(C(=O)Nc3ccc(C)c(C(=O)O)c3)c(CCC34CC5CC(CC(C5)C3)C4)[nH]2)c(C)n1` [Example 183, 5-{[5-(2-Adamantan-1-yl-ethyl)-2-(2,4,6-trimethyl-pyridine-3-yl)-1H-imidazole-4-carbonyl]-amino}-2-methyl-benzoic Acid]: 42.7 nM.
For `Cc1cc(C)c(-c2nc(C(=O)Nc3ccc(F)c(C(=O)O)c3)c(CCC34CC5CC(CC(C5)C3)C4)[nH]2)c(C)n1` [Example 184, 5-{[5-(2-Adamantan-1-yl-ethyl)-2-(2,4,6-trimethyl-pyridine-3-yl)-1H-imidazole-4-carbonyl]-amino}-2-fluoro-benzoic Acid], the Kb is 70.8 nM.
On to `COCC(COC)c1nc(C(=O)Nc2cccc(C(=O)O)c2)c(CCC23CC4CC(CC(C4)C2)C3)[nH]1` [Example 189, 3-{[5-(2-Adamantan-1-yl-ethyl)-2-(2-methoxy-1-methoxymethyl-ethyl)-1H-imidazole-4-carbonyl]-amino}-benzoic Acid], for which the Kb was 61.7 nM.
Still for that read-out and setting: next, `COCC1(c2nc(C(=O)Nc3cccc(C(=O)O)c3)c(CCC34CC5CC(CC(C5)C3)C4)[nH]2)CCCCC1` [Example 203, 3-{[5-(2-Adamantan-1-yl-ethyl)-2-(1-methoxymethyl-cyclohexyl)-1H-imidazole-4-carbonyl]-amino}-benzoic Acid]: 11.7 nM.
Still for that read-out and setting: the result for `O=C(O)c1cccc(NC(=O)c2nc(C3(CO)CCCCC3)[nH]c2CCC23CC4CC(CC(C4)C2)C3)c1` [Example 204, 3-{[5-(2-Adamantan-1-yl-ethyl)-2-(1-hydroxymethyl-cyclohexyl)-1H-imidazole-4-carbonyl]-amino}-benzoic Acid] reads 5.75 nM; that for `O=C(O)c1cccc(NC(=O)c2nc(C3C4CC5CC(C4)CC3C5)[nH]c2CCC23CC4CC(CC(C4)C2)C3)c1` (stereo not shown) [Example 207, 3-{[2-Adamantan-2-yl-5-(2-adamantan-1-yl-ethyl)-1H-imidazole-4-carbonyl]-amino}benzoic Acid], 69.2 nM.
Still for that read-out and setting: next, `O=C(O)c1cccc(NC(=O)c2nc(C3C4CCCC3CCC4)[nH]c2CCC23CC4CC(CC(C4)C2)C3)c1` (stereo not shown) [Example 208, 3-([5-(2-Adamantan-1-yl-ethyl)-2-bicyclo[3.3.1]non-9-yl-1H-imidazole-4-carbonyl]-amino}-benzoic Acid]: 3.47 nM.
